Reference: patent US20080113908A1, “Use of CRF receptor agonists for the treatment or Prophylaxis of diseases, for example Neurodegenerative diseases” (SmithKline Beecham plc, priority 2000, published 2008)

Experiments:
[1] = tested on: cerebellar granule neurons; experiment: Delayed addition of CRF after LY 294002, variation of Assay 1 (FIGS. 6A, 6B); assay type: cell-based, rat
Protocol: FIGS. 6A and 6B show neuronal survival results, using a variation of Assay 1 in which CRF (10 nM) was added at varying times (shown in hours) following LY 294002 (75 μM) addition. Therefore, granule neurons were cultured with the PI 3-kinase inhibitor LY 294002 (75 μM) in the presence of 10 nM CRF, added together with LY 294002 or at different times (shown in hours) following LY 294002 addition. FIG. 6A is the result from one experiment only. […] It appears from FIG. 6A that the neuroprotective effect is sustained when adding CRF at about 1-4 hrs after LY 294002 addition. From FIG. 6B, it appears that the neuroprotective effect is sustained when adding CRF up to 8 hours after LY 294002 addition.

hippocampal neurones = experiment: Amyloid-β peptide (25-35) toxicity, survival by counting viable neurons (FIGS. 8, 9); assay type: cell-based; conditions: Aβ(25-35) 10 μM, CRF 3-100 nM, 3 days
Protocol: In order to test whether CRF receptor agonists protect neurones from death caused by Aβ, the following experiment was conducted (FIGS. 8 and 9). Hippocampal neurons from embryonic day 18 rat were cultured in serum-free medium (neurobasal/B27) for 9 days. The culture methods are described on page 48 of S. D. Skaper et al., J. Neurochem., 2001, 76, 47-55. Cells were then treated with amyloid-β peptide (fragment 25-35) (Sigma, cat. no. A-4559, sequence Gly-Ser-Asn-Lys-Gly-Ala-Ile-Ile-Gly-Leu-Met) at 10 μM plus the indicated CRF receptor agonist at the indicated concentration, in the same culture medium. […] Cell survival was assessed after 3 days, by fixing the cultures and counting microscopically viable neurons. Values are expressed relative to numbers of surviving neurons in untreated cultures (=100).

GSK-3β = experiment: Western blot of serine-9-phosphorylated GSK-3β (FIG. 5); assay type: cell-based, rat; conditions: compound alone, 2 hours; CRF 10 nM, LY 294002 75 μM, FSK 30 μM
From the text: It was thought that CRF receptor agonists might interact with the PI 3-kinase signalling pathway and exert their neuroprotective effect by phosphorylating and inhibiting the protein GSK-3β,which is pro-apoptotic (M. Pap and G. M. Cooper, J. Biol. Chem., 273(32), 19929-19932, 1998; and M. Hetman et al. J. Neurosci., 1st Apr. 2000, 20(7), 2567-2574; discussed hereinabove). In order to confirm this, the level of GSK-3β phosphorylated at serine-9 (e.g. see D. A. E. Cross, Nature, 378, 785-789, 1995) in control cultures of cerebellar granule neurones was measured using Western blots, and compared to the level of phospho-GSK-3β in the presence of CRF as a model CRF receptor agonist and/or in the presence of the PI 3-kinase inhibitor LY 294002. In order to determine whether elevation of cAMP was involved in any effect, the level of phospho-GSK-3β in cultures in the presence of the known cAMP-elevating agent forskolin (FSK, obtainable e.g. from Calbiochem.) with or without LY 294002 present was also measured. The forskolin acts as a benchmark for cAMP-related effects.
The method used was as follows. […]
Phosphorylation of GSK-3β was detected using an antibody to serine-9-phosphorylated GSK-3β (anti-phospho-GSK-3β (Ser9)) available as catalogue no. […]

In the case of “H-SQEPPISLDLTFHLLREVLEMTKADQLAQQAHNNRKLLDIA-NH2 [CRF]”, the “neuroprotective effect with delayed CRF addition” value ([1]; CRF 10 nM added 10, 24 and 32 hours after LY 294002 75 μM) is reported as “Only a small neuroprotective effect”, the “neuroprotective effect with delayed CRF addition” value ([1]; CRF 10 nM added 46 hours after LY 294002 75 μM) is reported as “no neuroprotection” and the “time of CRF addition after LY 294002 at which neuroprotective effect is sustained (FIG. 6A)” value ([1]; CRF 10 nM, LY 294002 75 μM, one experiment) is reported as 1 to 4 h. For the same substance, the “time of CRF addition after LY 294002 at which neuroprotective effect is sustained (FIG. 6B)” value ([1]; CRF 10 nM, LY 294002 75 μM, two experiments combined) was “up to 8 hours”, the “neuroprotective effect against Aβ toxicity (FIG. 8)” value (hippocampal neurones) was 40-50% and the “phospho-GSK-3β level compared to control CN” value (GSK-3β) was “increase in basal phospho-GSK-3β”.
